Reference: patent publication US20220305178A1, “CANCER TREATMENT BY IN VITRO AMINO ACID DEPRIVATION” (YUANHENG BIOMEDICAL CO., LTD., priority 2021, published 2022)

Assay: Modified hemodialysis of simulated blood with Asparaginase in the dialysate, amino acids by UPLC
Format: biochemical, pig
Details: for concentration of Asn of the simulated blood / concentration of Arg of the simulated blood / concentration of Gln of the simulated blood / concentration of Met of the simulated blood / concentration of Ser of the simulated blood: Experimental group 1, Asparaginase 1 K.U./ml in dialysate; for concentration of Arg of the simulated blood / concentration of Gln of the simulated blood / concentration of Met of the simulated blood / concentration of Ser of the simulated blood: non-target amino acid
Protocol: 900 ml of pig's blood and 100 ml of Gibco Roswell Park Memorial Institute (RPMI) 1640 Medium (RPMI 1640 Medium) were mixed to obtain a diluted pig's blood. The diluted pig's blood was further added with 1.8 mg/ml EDTA-K^2+, 0.05% sodium azide; and 132 μl of Heparin with the concentration of 5000 U/ml to obtain a simulated blood, wherein the concentration of EDTA-K^2+ of the simulated blood was […].
The dialysis machine is Toray TR-321. The dialysate for extracorporeal circulation was triple the amount of the simulated blood and was 3000 ml, and the flow rate of dialysate was 500 ml/min. Before the simulated blood entered the dialysis machine, 1X PBS was used to clean the circulation pipeline of the dialysis machine, to achieve the required balance of the artificial kidney (Polyflux 17L), and to get rid of all bubbles in the artificial kidney, and the circulation speed was 250 ml/min. Besides, the effective membrane area of the artificial kidney is 1.7 m^2.
The dialysate consisted of Buffer A (hemodialysis concentrate No. 16, purchased from Taiwan Biotech Co., LTD), Buffer B (Sodium Bicarbonate Concentrate 8.4%, purchased from Fressenius Medical Care Ag, 61348 Bad Homburg, Germany) and R.O. water, wherein the volume ratio of Buffer A, Buffer B and R.O. water is 1:1.225:32.775.
The target amino acid is Asparagine (Asn), and the rest are non-target amino acids. The 3000 ml dialysate was added with 3 ml of Asparaginase with the concentration of 1000 K.U./ml (LEUNASE®) in the Experimental group 1, so the concentration of Asparaginase in the dialysate is 1 K.U./ml. No Asparaginase was added in the Control group 1.
The conductivity of the dialysate was adjusted to about 14 mS/cm. The dialysis temperature was set to be 37° C. When the pressure of the circulation pipeline, the temperature and the conductivity of the dialysate reached the desirable value and were stable, a green light signaled to indicate that hemodialysis was ready. The simulated blood was pumped into the circulation pipeline and entered the artificial kidney. Besides, the simulated blood was further added with Heparin with the concentration of 5000 U/ml at the flow rate of 4.4 ml/hour before the simulated blood entered the artificial kidney. The concentrations of amino acids in the simulated blood before and after dialysis were detected by ultra performance liquid chromatography (UPLC) and the results were shown in Table 1 and Table 2.

With Asparaginase the “concentration of Asn of the simulated blood” value (Polyflux 17L 1.7 m^2, dialysis time 0 min) was 41.8 µM, the “concentration of Asn of the simulated blood” value (Polyflux 17L 1.7 m^2, dialysis time 3 min) was 32.3 µM and the “concentration of Asn of the simulated blood” value (Polyflux 17L 1.7 m^2, dialysis time 5 min) was 24.2 µM. The “concentration of Arg of the simulated blood” value (dialysis time 0 min) was 212.4 µM, the “concentration of Gln of the simulated blood” value (dialysis time 0 min) was 381.8 µM and the “concentration of Met of the simulated blood” value (dialysis time 0 min) was 38.5 µM. For the same substance, the “concentration of Ser of the simulated blood” value (dialysis time 0 min) was 159.8 µM, the “concentration of Arg of the simulated blood” value (dialysis time 3 min) was 83.0 µM and the “concentration of Gln of the simulated blood” value (dialysis time 3 min) was 147.5 µM. For the same substance, the “concentration of Met of the simulated blood” value (dialysis time 3 min) was 16.0 µM, the “concentration of Ser of the simulated blood” value (dialysis time 3 min) was 67.7 µM and the “concentration of Arg of the simulated blood” value (dialysis time 5 min) was 74.6 µM. For the same substance, the “concentration of Gln of the simulated blood” value (dialysis time 5 min) was 131.5 µM, the “concentration of Met of the simulated blood” value (dialysis time 5 min) was 14.4 µM and the “concentration of Ser of the simulated blood” value (dialysis time 5 min) was 63.2 µM. The “concentration of Arg of the simulated blood” value (dialysis time 10 min) was 16.9 µM, the “concentration of Gln of the simulated blood” value (dialysis time 10 min) was 24.2 µM and the “concentration of Met of the simulated blood” value (dialysis time 10 min) was 3.7 µM. For the same substance, the “concentration of Ser of the simulated blood” value (dialysis time 10 min) was 17.5 µM, the “concentration of Arg of the simulated blood” value (dialysis time 20 min) was 14.7 µM and the “concentration of Gln of the simulated blood” value (dialysis time 20 min) was 18.2 µM. The “concentration of Met of the simulated blood” value (dialysis time 20 min) was 3.8 µM, the “concentration of Ser of the simulated blood” value (dialysis time 20 min) was 20.0 µM and the “concentration of Arg of the simulated blood” value (dialysis time 30 min) was 14.3 µM. For the same substance, the “concentration of Gln of the simulated blood” value (dialysis time 30 min) was 18.3 µM, the “concentration of Met of the simulated blood” value (dialysis time 30 min) was 3.5 µM and the “concentration of Ser of the simulated blood” value (dialysis time 30 min) was 17.8 µM. The “dialysis time within which Asparagine (Asn) is undetectable” value (Experimental group 1, simulated blood, LOD of Asparagine 5 μM) was at most 10 min.
